# From PMC7911889 (Viruses, 2021)
# Where two headings read alike, the source gives them in different places. Non-standard residues stand in square brackets, D forms with d. Residues, ends and D or L forms follow the SMILES beside them. *: point of attachment. Nva = CCC[C@H](N)C(=O)O; Cbz = O=C(OCc1ccccc1)*
# Tests used:
# [1] = in vitro; settings: human
# [2] = system: cell culture; settings: cited from earlier work
# [3] = system: 293T human embryonic kidney cells
# [4] = system: SARS-CoV-2; parameters: method as in per compound as in References column of Table 1; settings: read-out: Reported EC50 for inhibition of SARS-CoV-2 replication in cell culture; cited from earlier work
# [5] = read-out: CC50, CellTiter-Glo 2.0 assay, transfected 293T cells, 30 h post-transfection
# [6] = transfected 293T cells (human embryonic kidney)
molecule,measurement,setting,value
CC(C)CN(C[C@@H](O)[C@H](Cc1ccccc1)NC(=O)O[C@H]1CCOC1)S(=O)(=O)c1ccc(N)cc1 [Amprenavir],CC50 at 30 h post-transfection,[1],> 100 µM
C=C[C@@H]1C[C@]1(NC(=O)[C@@H]1C[C@@H](Oc2ncc(OC)c3ccc(Cl)cc23)CN1C(=O)[C@@H](NC(=O)OC(C)(C)C)C(C)(C)C)C(=O)NS(=O)(=O)C1CC1 [Asunaprevir],CC50,[1],31.5 µM
COC(=O)N[C@H](C(=O)N[C@@H](Cc1ccccc1)[C@@H](O)CN(Cc1ccc(-c2ccccn2)cc1)NC(=O)[C@@H](NC(=O)OC)C(C)(C)C)C(C)(C)C [Atazanavir],CC50 at 30 h post-transfection,[1],> 100 µM
O=c1cc(-c2ccccc2)oc2cc(O)c(O)c(O)c12 [Baicalein],CC50,[1],> 100 µM
CC(C)(C)NC(=O)N[C@H](C(=O)N1C[C@H]2[C@@H]([C@H]1C(=O)NC(CC1CCC1)C(=O)C(N)=O)C2(C)C)C(C)(C)C (stereo partly drawn) [Boceprevir],CC50 at 30 h post-transfection,[1],> 100 µM
same,Reported CC50 (corresponding to reported EC50),[2],>100–>200
CSCC[C@@H](C=O)NC(=O)[C@H](CC(C)C)NC(=O)[C@H](CC(C)C)NC(C)=O [Calpain Inhibitor II] (Ac-Leu-Leu-Met-aldehyde),CC50,[3],> 100 µM
same,Reported CC50 (corresponding to reported EC50),[2],>100 µM
CCCC(NC(=O)C(CC(C)C)NC(=O)OCc1ccccc1)C(=O)C(=O)NCc1ccccn1 (stereo not drawn) [Calpain Inhibitor XII],CC50,[3],> 100 µM
same,Reported CC50 (corresponding to reported EC50),[2],>100 µM
O=C1C(Cl)=C(NCCN2CCOCC2)C(=O)c2ncccc21 [DA-3003-1],CC50,[3]; [5],7.7 µM
same,Reported CC50 (corresponding to reported EC50),[2],7.7 µM
CC(C)CN(C[C@@H](O)[C@H](Cc1ccccc1)NC(=O)O[C@H]1CO[C@H]2OCC[C@H]21)S(=O)(=O)c1ccc(N)cc1 [Darunavir],EC50,[4],46.4 µM
O=c1c2ccccc2[se]n1-c1ccccc1 [Ebselen],CC50,[1],8 µM
CC(C)C[C@H](NC(=O)OCc1ccccc1)C(=O)N[C@@H](CC1CCNC1=O)C(O)S(=O)(=O)O (stereo partly drawn) [GC376],EC50,[4],0.2 to 4.5 µM
same,CC50,[3],> 100 µM
CC(C)C[C@H](NC(=O)OCc1ccccc1)C(=O)N[C@@H](C[C@@H]1CCNC1=O)C(O)S(=O)(=O)[O-].[Na+] (stereo partly drawn) [GC376],Effect on cell viability (in words),[3],no significant effect on cell viability up to 100 µM
same,Reported CC50 (corresponding to reported EC50),[2],>100–>200
C=C[C@@H]1C[C@]1(NC(=O)[C@@H]1C[C@@H]2CN1C(=O)[C@H](C(C)(C)C)NC(=O)O[C@@H]1C[C@H]1CCCCCc1nc3ccc(OC)cc3nc1O2)C(=O)NS(=O)(=O)C1CC1 [Grazoprevir],CC50,[3],57.4 µM
CC(C)(C)NC(=O)[C@@H]1CN(Cc2cccnc2)CCN1C[C@@H](O)C[C@@H](Cc1ccccc1)C(=O)N[C@H]1c2ccccc2C[C@H]1O [Indinavir],CC50,[1],> 100 µM
Cc1cccc(C)c1OCC(=O)N[C@@H](Cc1ccccc1)[C@@H](O)C[C@H](Cc1ccccc1)NC(=O)[C@H](C(C)C)N1CCCNC1=O [Lopinavir],CC50,[1],29.1 µM
O=C(Oc1cncc(Cl)c1)c1cccs1 [MAC 5576],CC50,[3],> 100 µM
same,Reported CC50 (corresponding to reported EC50),[2],>100 µM
CCC[C@@H](C=O)NC(=O)[C@H](CC(C)C)NC(=O)[C@H](CC(C)C)NC(=O)OCc1ccccc1 [MG-115] (Cbz-Leu-Leu-[Nva]-aldehyde),CC50,[3]; [5],11 µM
same,Reported CC50 (corresponding to reported EC50),[2],1.1 µM
COc1ccc2cc(-c3cc(-c4cc(Cl)cc(Cl)c4)nn3[C@@H](C)c3ccc(C(=O)NCCC(=O)O)cc3)ccc2c1 [MK 0893],EC50,[4],3.2 µM
same,CC50,[1],42.3 µM
same,Reported CC50 (corresponding to reported EC50),[2],12.6 µM
Cc1ccc(NC(=O)c2ccc(CN3CCN(C)CC3)cc2)cc1Nc1nc(-c2cccnc2)cs1 [Masitinib],CC50 at 30 h post-transfection,[1]; [6],3 µM
Cc1c(O)cccc1C(=O)N[C@@H](CSc1ccccc1)[C@H](O)CN1C[C@H]2CCCC[C@H]2C[C@H]1C(=O)NC(C)(C)C [Nelfinavir],CC50,[1],11.2 µM
CCN(CC)CCCC(C)Nc1c2ccc(Cl)cc2nc2ccc(OC)cc12 (stereo not drawn) [Quinacrine],CC50,[1],2.5 µM
CC(C)(C)NC(=O)[C@@H]1C[C@@H]2CCCC[C@@H]2CN1C[C@@H](O)[C@H](Cc1ccccc1)NC(=O)[C@H](CC(N)=O)NC(=O)c1ccc2ccccc2n1 [Saquinavir],CC50,[1],27.3 µM
COc1ccc2c(O[C@@H]3C[C@H]4C(=O)N[C@]5(C(=O)NS(=O)(=O)C6CC6)C[C@H]5/C=C\CCCCN(C)C(=O)[C@@H]4C3)cc(-c3nc(C(C)C)cs3)nc2c1C [Simeprevir],CC50 at 30 h post-transfection,[1],19.6 µM
Cc1ccc(C(=O)Nc2ccc(S(=O)(=O)O)c3cc(S(=O)(=O)O)cc(S(=O)(=O)O)c23)cc1NC(=O)c1cccc(NC(=O)Nc2cccc(C(=O)Nc3cc(C(=O)Nc4ccc(S(=O)(=O)O)c5cc(S(=O)(=O)O)cc(S(=O)(=O)O)c45)ccc3C)c2)c1 [Suramin],EC50,[4],20 µM
same,CC50,[1],> 100 µM
same,Reported CC50 (corresponding to reported EC50),[2],>20–>5000
Brc1c(Br)c(Br)c2n[nH]nc2c1Br [TBB],Reported CC50 (corresponding to reported EC50),[2],8.9 µM
COc1cc(C)c2c(Oc3cccc(C(F)(F)F)c3)c(OC)cc(NC(C)CCCN)c2n1 (stereo not drawn) [Tafenoquine],CC50 at 30 h post-transfection,[1],2 µM
same,Reported CC50 (corresponding to reported EC50),[2],37.2 µM
CCC[C@H](NC(=O)[C@@H]1[C@H]2CCC[C@H]2CN1C(=O)[C@@H](NC(=O)[C@@H](NC(=O)c1cnccn1)C1CCCCC1)C(C)(C)C)C(=O)C(=O)NC1CC1 [Telaprevir],CC50 at 30 h post-transfection,[1]; [6],71.5 µM
CCC[C@@]1(CCc2ccccc2)CC(O)=C([C@H](CC)c2cccc(NS(=O)(=O)c3ccc(C(F)(F)F)cn3)c2)C(=O)O1 [Tipranavir],CC50 at 30 h post-transfection,[1],85.1 µM
Cn1nc(-c2ccc(C(F)(F)F)cc2)nc2c(=O)n(C)c(=O)nc1-2 [Walrycin B],CC50,[3],29 µM
same,Reported CC50 (corresponding to reported EC50),[2],4.3 µM
CC(NC(=O)[C@H](Cc1ccccc1)NC(=O)OCc1ccccc1)C(=O)CF (stereo partly drawn) [Z-FA-FMK],CC50,[3]; [5],> 100 µM
same,Reported CC50 (corresponding to reported EC50),[2],>20 µM
COc1cccc2c1C(=O)c1c(O)c3c(c(O)c1C2=O)C[C@@](O)(C(=O)CO)C[C@@H]3O[C@H]1C[C@H](N)[C@H](O)[C@H](C)O1 [doxorubicin],CC50 at 30 h post-transfection,[1]; [6],3.7 µM
O.O=C(OC[C@H]1O[C@@H](OC(=O)c2cc(O)c(O)c(O)c2)[C@H](OC(=O)c2cc(O)c(O)c(O)c2)[C@@H](OC(=O)c2cc(O)c(O)c(O)c2)[C@@H]1OC(=O)c1cc(O)c(O)c(O)c1)c1cc(O)c(O)c(O)c1 [penta-O-galloyl-beta-D-glucose hydrate],CC50,[3],30.4 µM
same,Reported CC50 (corresponding to reported EC50),[2],11.2 µM
GRL-0496,EC50,[4],9.1 µM
same,CC50,[3],53.2 µM
same,Reported CC50 (corresponding to reported EC50),[2],81.0 µM
